Columns and labels:
cervix erosion = test: Clinic test in patients with cervix erosion; type: in vivo, human beings; settings: treating group 83 cases, positive medicament control group 60 cases
Excerpt: A spray formulation of 2% N-acetyl-D-glucosamine was applied to human beings, up to the end of August 1999, there were 123 cases of patients to be observed in total.

Lactobacilli = test: Liquid cultivation of Lactobacilli; type: cell-based
Excerpt: (§1) • 1. […] Experimental Results and Evaluation: • The experiment adopts a bio-wave model which is used to research the promoting wave function of the compound of formula (I). […] II. Toxicological Test of the Compound of Formula (I), including: • 1. acute toxicity test: including tests of administrating medicine by oral, Intravenous injection and maximum limit amount for administration; • 2. […] III. Test of Removing Pathogenic Microorganism by Resistance to Field Planting Action

[1] = in vivo
Excerpt: as §1

Proteus Mirabilis = test: Promoting wave test (bio-wave model on LB plate); type: cell-based
Excerpt: as §1

[2] = system: pathogenic microorganism such as Candida albicans, vagina Heamophilus; test: Test of removing pathogenic microorganism by resistance to field planting action; type: cell-based; settings: in situ bacterial field planting, qualitative and quantitative determination tests

SMILES	cured (number of cases) (cervix erosion)	effective (number of cases) (cervix erosion)	growth of Lactobacilli (Lactobacilli)	acute test dosage relative to the injection dosage for human being [1] [times]	promoting wave function (wave pattern of concentric rings) (Proteus Mirabilis)	effect on field planting growth of pathogenic microorganism [2]	sterilizing or bacteria-inhibiting effect [2]
O=[N+]([O-])[O-].[Ag+] [AgNO3]	5	8					
CC(=O)N[C@@H]1[C@@H](O)[C@H](O)[C@@H](CO)O[C@H]1O [compound of formula (I), N-acetyl-D-glucosamine]			can improve the growth of Lactobacilli	300	many fine waves on each ring emerged	disabling pathogenic microorganism such as Candida albicans, vagina Heamophilus and etc. from field planting growth	substantially has no sterilizing or bacteria-inhibiting effect

— patent US6992073B2, “Use of N-acetyl-D-glucosamine in the manufacture of a medicament for treating cervical erosion” (Third Military Medical University, Chinese People's …, priority 2002, dated 2006)
